Assay [1] has as its system cultured cells (e.g., fibroblasts and epithelial cells). The assay is described as follows: Radiation protection of cultured cells (clonogenic survival, various cell types). The following applies: for radiation protection relative to DIM: cultured cells. In kind it is cell-based. An excerpt: DIM, a metabolite of indole-3-carbinol and a proposed […], is a potent radiation protector in cultured cells and in rodents (mice and rats). The preparation of DIM that was used for most experiments was a microencapsulated form of DIM produced by BioResponse Nutrients (Boulder, Colo.). This microencapsulated form of DIM is designed with specific excipients (e.g., alpha-tocopherol succinate and phosphatidylcholine) to provide enhanced absorption and, therefore, enhanced bioavailability.
(§1) Following the indicated treatment(s), subconfluent proliferating cells were irradiated with different doses of ^137Cs γ-rays, harvested using trypsin, and plated at different densities in the absence or presence of DIM (as indicated) for colony formation (clonogenic survival) assays, as described in Zhang et al., Radiat Res, 161:667-674 (2004). Values of surviving fraction are means±SEMs of triplicate plates.
Novel compounds were synthesized, which we have tested for their ability to protect cells against radiation in cultured cells. […] None of these compounds are predicted to be free-radical scavengers or to be genotoxic. For reference, clonogenic radiation survival curves of cultured human mammary epithelial cells treated without or with DIM are shown in FIG. 6, panels A and B. In these studies, human mammary epithelial cells at about 70-80% of confluency were treated with DIM (0.3 μM) or vehicle ([…]) for 24 hours. The cells were then irradiated using different doses of ^137Cs gamma rays, harvested, plated at different densities in the presence of DIM (0.3 μM) or vehicle, respectively, incubated for 14 days, and then counted for colony formation. In FIG. 6, panels A and B, the clonogenic survival curves are shown using non-tumorigenic human mammary epithelial cell lines Hs5788st (panel B) or 184A1 (panel A). All cell survival values are means±SEMs of three replicate dishes.

The test system of assay [2] is non-homologous end joining. The assay is described as follows: DNA strand rejoining assay (linearized plasmid pEGFP-1, nuclear lysates). In kind it is cell-based, human. The settings on record: 184A1 cells; inhibitor 10 μM. The method, then: FIGS. 11A and 11B show subconfluent proliferating 184A1 (FIG. 11A) or Hs578Bst (FIG. 11B) cells pre-treated±DIM (0.3 μM×24 hr); exposed to radiation (3-Gy) on ice; and subjected to neutral comet assays at different times post-irradiation. Values of % tail DNA are means±ranges of two determinations. […] At 24-hr after irradiation, cells were analyzed by flow cytometry for apoptosis, by measuring membrane redistribution of phosphatidylserine. The percentage of early and late apoptotic cells for non-irradiated control cells were: vehicle treated, 1.25% and 1.34%, and DIM-treated, 0.54% and 1.02%, respectively.
After the indicated cell treatment(s), nuclear lysates were prepared and aliquots of lysate (50 or 75 μg of nuclear protein) were tested for their ability to rejoin a plasmid (pEGFP-1, Clontech) that had been linearized using restriction enzyme SmaI. The reaction products were detected by Southern blotting, which was performed with a digoxigenin-labeled enhanced green fluorescent protein RNA probe. The percent rejoined plasmids […] was determined by densitometric quantification of the bands corresponding to rejoined and unrejoined plasmid.
Since ATM is known to have a major role in the repair of radiation-induced double-strand breaks (DSBs) of DNA, it was tested whether DIM could stimulate the repair of DSBs. The neutral comet assay is an electrophoretic method to measure DNA damage that reflects DSBs. The percent of tail DNA after irradiation reflects the number of DSBs. […] A DNA strand-rejoining assay based on the ability of cell nuclei to rejoin a linearized plasmid (pEGFP-1) was also performed, detected by Southern blotting. This assay reflects the process of non-homologous end joining (NEHJ).

The next assay relates to ATM. The assay is described as follows: Western blot of ATM signaling, 184A1 cells. Format: cell-based, human. The following applies: KU55933 10 μM. The method, then:
FIG. 7A contains Western blots of subconfluent proliferating 184A1 human mammary epithelial cells exposed to DIM (0.3 μM) for different time intervals. Phosphorylated or total levels of ATM and of several different ATM substrate proteins were determined, as indicated. As a negative control, cells were treated with a selective inhibitor of ATM kinase activity (KU55933). FIG. 7B contains Western blots of 184A1 cells either untreated or treated with radiation (2-Gy of γ-radiation) and/or DIM (0.3 μM).
FIG. 8 contains a Western blot of subconfluent proliferating 184A1 human mammary epithelial cells exposed to DIM (0.3 μM) for different time intervals. Phosphorylated or total levels of ATM and of different DNA damage-response proteins were determined, as indicated.
Western blotting was performed. The primary antibodies were as follows: rabbit polyclonal anti-BRCA1 (sc-642, Santa Cruz); mouse monoclonal α-actin (sc-1616, Santa Cruz); anti-phospho-BRCA1 (S1387) [AB3257, Millipore (Billerica, Mass.)]; mouse monoclonal anti-ATM (sc-73615, Santa Cruz,); anti-phospho-ATM (S1981); anti-CHK2 (05-649, mouse monoclonal, Millipore); anti-phosph-CHK2 (T68) (ab32055, rabbit monoclonal, Abcam, Cambridge, Mass.); anti-p53 (ab2433, rabbit polyclonal, Abcam), and rabbit polyclonal anti-phospho-p53 (S15) (ab38497, Abcam).
In general terms: A western blot detects proteins with antibodies after separation by electrophoresis.

Assay [3] deals with Hs578Bst human mammary epithelial cells. The assay is described as follows: Clonogenic survival after radiation, Hs578Bst cells. Format: cell-based. The settings on record: single dose of radiation (8-Gy); different concentrations.
From the text: as §1
It was next tested whether DIM could protect cultured cells against radiation using clonogenic survival (colony formation) assays. Cells were exposed to DIM (0.3 μM) for 24-hr, irradiated, and harvested for colony formation assays. […]
Novel compounds were synthesized, which we have tested for their ability to protect cells against radiation in cultured cells. […] The cells were then irradiated using different doses of ^137Cs gamma rays, harvested, plated at different densities in the presence of DIM (0.3 μM) or vehicle, respectively, incubated for 14 days, and then counted for colony formation. […]
Cells at about 70-80% confluency were treated with vehicle (DMSO) or with the indicated compound (1 μM) for 24 hours, irradiated using different doses of ^137Cs gamma rays, harvested, plated at different densities in the presence of the compound (0.3 μM) or vehicle, respectively, incubated for 14 days, and then counted for colony formation. […]

Each structure is given as a SMILES string.

For the molecule `COc1ccc2c(c1)[nH]c1c(C)c(OS(=O)(=O)c3cccc4c(N(C)C)cccc34)ccc12` [KED-4-69], the “radiation protection relative to DIM” value in assay [1] was “strong levels of radiation protection similar to, slightly greater than, or slightly less than DIM”.

For `O=c1cc(-c2cccc3c2Sc2ccccc2S3)oc(N2CCOCC2)c1` [KU55933], the “effect on DIM-induced strand-rejoining” value in assay [2] is “blocked DIM-induced strand-rejoining”. Besides, the “effect on DIM-induced phosphorylations of ATM, BRCA1 and CHK2” value with ATM was “blocked”.

Turning to `CCOC(=O)C(O)(c1c(C)n(C)c2ccccc12)C(F)(F)F` (stereo not drawn) [THW-5-85], in assay [3], the “potency of survival enhancement relative to DIM” value is on record as “at least as potent as DIM”. Also, the “radiation protection relative to DIM” value in assay [1] was “strong levels of radiation protection similar to, slightly greater than, or slightly less than DIM”.

With `c1ccc2c(Cc3c[nH]c4ccccc34)c[nH]c2c1` [crystalline DIM, 3,3′-diindolylmethane], in assay [1] (ionizing radiation, clonogenic survival assays), the “radioprotection of cultured cells” value was “work very well as radioprotectors”.

Source of the values: patent publication US10266490B2, “Radioprotector compounds” (GEORGETOWN UNIVERSITY, priority 2012, dated 2019).
